How the values were obtained:
Assay type in all cases: cell-based
NCI-H522 = details: NCI-H522
DU-145 = details: DU-145
SW-620 = details: SW-620
CCRF-CEM = details: CCRF-CEM
HT29 = details: HT29
MDA-MB-231/ATCC = details: MDA-MB-231/ATCC
SN12C = details: SN12C
UO-31 = details: UO-31
MOLT-4 = details: MOLT-4
MDA-MB-435 = details: MDA-MB-435
HL-60(TB) = details: HL-60(TB); 10^−5 molar
BT-549 = details: BT-549
SNB-19 = details: SNB-19
T-47D = details: T-47D
SNB-75 = details: SNB-75
OVCAR-8 = details: OVCAR-8
NCI/ADR-RES = details: NCI/ADR-RES
PC-3 = details: PC-3
SR = details: SR
ACHN = details: ACHN
UACC-62 = details: UACC-62
KM12 = assay: cells; details: KM12
HCT-15 = details: HCT-15
COLO 205 = details: COLO 205
M14 = details: M14
K-562 = details: K-562
NCI-H460 = details: NCI-H460
60 cancer cell lines = assay: NCI 60-cell screen, SRB, whole panel (mean, delta, range)
LOX IMVI = details: LOX IMVI, five dose
A549/ATCC = details: A549/ATCC
HOP-62 = details: HOP-62
OVCAR-5 = details: OVCAR-5
SK-OV-3 = details: SK-OV-3
HCT-116 = details: HCT-116
SK-MEL-5 = details: SK-MEL-5
NCI-H23 = details: NCI-H23
RXF 393 = details: RXF 393; 10^−5 molar
MCF7 = details: MCF7
TK-10 = details: TK-10
[1] = Homo sapiens, five dose, read-out: LC50 (the source's name)

In the case of `O=c1c2cc(Cl)ccc2sc2c(NCc3ccccc3)nc3ccccc3c12` [Compound N25, 6-(Benzylamino)-10-chloro-12H-thiochromeno[2,3-c]quinolin-12-one], the GI50 (NCI-H522; Homo sapiens, five dose) is reported as 25.3 µM, the LC50 (concentration causing 50% net cell kill) (NCI-H522; Homo sapiens, five dose) is reported as greater than 100 µM and the Growth percent (NCI-H522; 10^−5 molar) is reported as 75.71%. The TGI (NCI-H522; five dose) was greater than 100 µM, the Growth percent (DU-145; 10^−5 molar) was 74.80% and the TGI (DU-145; five dose) was greater than 100 µM. The GI50 (DU-145; Homo sapiens, five dose) was 5.5 µM, the CC50 (DU-145; [1]) was greater than 100 µM and the LC50 (SW-620; Homo sapiens, five dose) was greater than 100 µM. For the same compound, the Growth percent (SW-620; 10^−5 molar) was 78.97%, the TGI (SW-620; five dose) was greater than 100 µM and the Growth percent (CCRF-CEM; 10^−5 molar) was 102.34%. The TGI (CCRF-CEM; five dose) was greater than 100 µM, the GI50 (CCRF-CEM; Homo sapiens, five dose) was greater than 100 µM and the CC50 (CCRF-CEM; [1]) was greater than 100 µM. For the same compound, the Growth percent (HT29; 10^−5 molar) was 77.16%, the TGI (HT29; five dose) was greater than 100 µM and the LC50 (concentration killing 50% of cells) (HT29; Homo sapiens, HT-29, five dose) was greater than 100 µM. The GI50 (MDA-MB-231/ATCC; Homo sapiens, five dose) was 2.36 µM, the CC50 (MDA-MB-231/ATCC; [1]) was greater than 100 µM and the Growth percent (MDA-MB-231/ATCC; 10^−5 molar) was 32.67%. The TGI (MDA-MB-231/ATCC; five dose) was 34.80 µM, the GI50 (SN12C; Homo sapiens, five dose) was 24.9 µM and the CC50 (SN12C; [1]) was greater than 100 µM. The Growth percent (SN12C; 10^−5 molar) was 87.80%, the TGI (SN12C; five dose) was greater than 100 µM and the GI50 (UO-31; Homo sapiens, five dose) was 57.8 µM. The CC50 (UO-31; [1]) was greater than 100 µM, the Growth percent (UO-31; 10^−5 molar) was 65.31% and the TGI (UO-31; five dose) was greater than 100 µM. The GI50 (MOLT-4; Homo sapiens, five dose) was greater than 100 µM, the CC50 (MOLT-4; [1]) was greater than 100 µM and the Growth percent (MOLT-4; 10^−5 molar) was 92.42%. The TGI (MOLT-4; five dose) was greater than 100 µM, the GI50 (MDA-MB-435; Homo sapiens, five dose) was greater than 100 µM and the CC50 (MDA-MB-435; [1]) was greater than 100 µM. For the same compound, the Growth percent (MDA-MB-435; 10^−5 molar) was 89.58%, the TGI (MDA-MB-435; five dose) was greater than 100 µM and the Growth percent (HL-60(TB)) was 98.82%. For the same compound, the Growth percent (BT-549; 10^−5 molar) was 97.19%, the TGI (BT-549; five dose) was greater than 100 µM and the GI50 (BT-549; Homo sapiens, five dose) was 20.5 µM. For the same compound, the CC50 (BT-549; [1]) was greater than 100 µM, the GI50 (SNB-19; Homo sapiens, five dose) was 8.56 µM and the LC50 (concentration killing 50% of cells) (SNB-19; Homo sapiens, five dose) was greater than 100 µM. For the same compound, the Growth percent (SNB-19; 10^−5 molar) was 102.93%, the TGI (SNB-19; five dose) was greater than 100 µM and the GI50 (T-47D; Homo sapiens, T47D, five dose) was 1.26 µM. It also gave a CC50 (T-47D; Homo sapiens, T47D, five dose, read-out: LC50 (the source's name)) greater than 100 µM, a Growth percent (T-47D; 10^−5 molar) of 38.08% and a TGI (T-47D; five dose) of 7.11 µM. The GI50 (SNB-75; Homo sapiens, five dose) was 1.45 µM, the LC50 (SNB-75; Homo sapiens, five dose) was 9.91 µM and the Growth percent (SNB-75; 10^−5 molar) was 14.83%. It also gave a TGI (SNB-75; five dose) of 3.78 µM, a GI50 (OVCAR-8; Homo sapiens, five dose) of 7.75 µM and a CC50 (OVCAR-8; [1]) greater than 100 µM. For the same compound, the Growth percent (OVCAR-8; 10^−5 molar) was 68.33%, the TGI (OVCAR-8; five dose) was greater than 100 µM and the GI50 (NCI/ADR-RES; Homo sapiens, five dose) was 43 µM. It also gave a CC50 (NCI/ADR-RES; [1]) greater than 100 µM, a Growth percent (NCI/ADR-RES; 10^−5 molar) of 77.36% and a TGI (NCI/ADR-RES; five dose) greater than 100 µM. For the same compound, the GI50 (PC-3; Homo sapiens, five dose) was 56.9 µM, the CC50 (PC-3; [1]) was greater than 100 µM and the Growth percent (PC-3; 10^−5 molar) was 72.70%. For the same compound, the TGI (PC-3; five dose) was greater than 100 µM, the GI50 (SR; Homo sapiens, five dose) was greater than 100 µM and the LC50 (50% lethal concentration) (SR; Homo sapiens, five dose) was greater than 100 µM. It also gave a Growth percent (SR; 10^−5 molar) of 85.46%, a TGI (SR; five dose) greater than 100 µM and a Growth percent (ACHN; 10^−5 molar) of 51.82%. For the same compound, the TGI (ACHN; five dose) was greater than 100 µM, the GI50 (ACHN; Homo sapiens, five dose) was 4.02 µM and the CC50 (ACHN; [1]) was greater than 100 µM. For the same compound, the GI50 (UACC-62; Homo sapiens, five dose) was 16.9 µM, the CC50 (UACC-62; [1]) was greater than 100 µM and the Growth percent (UACC-62; 10^−5 molar) was 89.20%. It also gave a TGI (UACC-62; five dose) greater than 100 µM, a GI50 (KM12; Homo sapiens, five dose) of 48.3 µM and an LC50 (KM12; Homo sapiens, five dose) greater than 100 µM. The Growth percent (KM12; 10^−5 molar) was 80.34%, the TGI (KM12; five dose) was greater than 100 µM and the Growth percent (HCT-15; 10^−5 molar) was 71.76%. The TGI (HCT-15; five dose) was greater than 100 µM, the GI50 (HCT-15; Homo sapiens, five dose) was 8.75 µM and the LC50 (HCT-15; Homo sapiens, five dose) was greater than 100 µM. For the same compound, the Growth percent (COLO 205; 10^−5 molar) was 80.79%, the TGI (COLO 205; five dose) was greater than 100 µM and the LC50 (COLO 205; Homo sapiens, five dose) was greater than 100 µM. For the same compound, the GI50 (M14; Homo sapiens, five dose) was greater than 100 µM, the LC50 (M14; Homo sapiens, five dose) was greater than 100 µM and the Growth percent (M14; 10^−5 molar) was 87.29%. The TGI (M14; five dose) was greater than 100 µM, the GI50 (K-562; Homo sapiens, K562, five dose) was greater than 100 µM and the CC50 (K-562; Homo sapiens, K562, five dose, read-out: LC50 (the source's name)) was greater than 100 µM. It also gave a Growth percent (K-562; 10^−5 molar) of 90.61%, a TGI (K-562; five dose) greater than 100 µM and a GI50 (NCI-H460; Homo sapiens, five dose) of 5 µM. It also gave an LC50 (NCI-H460; Homo sapiens, five dose) greater than 100 µM, a Growth percent (NCI-H460; 10^−5 molar) of 64.41% and a TGI (NCI-H460; five dose) greater than 100 µM. For the same compound, the GI50 (60 cancer cell lines; 60 cell, mean over panel, five dose) was 11.2 µM, the CC50 (60 cancer cell lines; 60 cell, mean over panel, five dose, read-out: LC50, Mean) was 91.2 µM and the “Growth percent, Delta” value (60 cancer cell lines; delta over panel, 10^−5 molar) was 81.80%. For the same compound, the “Growth percent, Mean” value (60 cancer cell lines; mean over panel, 10^−5 molar) was 71.97%, the “TGI, Mean” value (60 cancer cell lines; mean over panel, five dose) was 53.70 µM and the “Growth percent, Range” value (60 cancer cell lines; range over panel, 10^−5 molar) was 112.76%. It also gave a GI50 (LOX IMVI; Homo sapiens) greater than 100 µM, an LC50 (LOX IMVI; Homo sapiens) greater than 100 µM and a TGI (LOX IMVI) greater than 100 µM. It also gave a Growth percent (A549/ATCC; 10^−5 molar) of 68.33%, a TGI (A549/ATCC; five dose) greater than 100 µM and a GI50 (A549/ATCC; Homo sapiens, five dose) of 14.4 µM. It also gave an LC50 (A549/ATCC; Homo sapiens, five dose) greater than 100 µM, a Growth percent (HOP-62; 10^−5 molar) of 66.53% and a TGI (HOP-62; five dose) of 5.92 µM. The GI50 (HOP-62; Homo sapiens, five dose) was 2.43 µM, the LC50 (lethal concentration 50) (HOP-62; Homo sapiens, five dose) was 27.7 µM and the GI50 (OVCAR-5; Homo sapiens, five dose) was greater than 100 µM. The CC50 (OVCAR-5; [1]) was greater than 100 µM, the Growth percent (OVCAR-5; 10^−5 molar) was 91.27% and the TGI (OVCAR-5; five dose) was greater than 100 µM. It also gave a GI50 (SK-OV-3; Homo sapiens, five dose) of 3.56 µM, a CC50 (SK-OV-3; [1]) greater than 100 µM and a Growth percent (SK-OV-3; 10^−5 molar) of 36.71%. For the same compound, the TGI (SK-OV-3; five dose) was 13.90 µM, the Growth percent (HCT-116; 10^−5 molar) was 66.87% and the TGI (HCT-116; five dose) was greater than 100 µM. It also gave a GI50 (HCT-116; Homo sapiens, five dose) of 5.59 µM, an LC50 (concentration killing 50% of cells) (HCT-116; Homo sapiens, five dose) greater than 100 µM and a GI50 (SK-MEL-5; Homo sapiens, five dose) of 4.23 µM. The LC50 (SK-MEL-5; Homo sapiens, five dose) was greater than 100 µM, the Growth percent (SK-MEL-5; 10^−5 molar) was 92.81% and the TGI (SK-MEL-5; five dose) was greater than 100 µM. It also gave a GI50 (NCI-H23; Homo sapiens, five dose) of 15.2 µM, an LC50 (lethal concentration 50%) (NCI-H23; Homo sapiens, five dose) greater than 100 µM and a Growth percent (NCI-H23; 10^−5 molar) of 74.37%. It also gave a TGI (NCI-H23; five dose) greater than 100 µM, a Growth percent (RXF 393) of 71.08% and a GI50 (MCF7; Homo sapiens, five dose) of 0.04 µM. It also gave a CC50 (MCF7; [1]) greater than 100 µM, a Growth percent (MCF7; 10^−5 molar) of 16.01% and a TGI (MCF7; five dose) of 18.60 µM. For the same compound, the GI50 (TK-10; Homo sapiens, five dose) was 5.02 µM, the CC50 (TK-10; [1]) was greater than 100 µM and the Growth percent (TK-10; 10^−5 molar) was 75.80%. It also gave a TGI (TK-10; five dose) of 22.30 µM.

— patent publication US8927717B1, “Thiochromeno[2,3-c]quinolin-12-one derivatives, preparation method and application thereof” (National Defense Medical Center, priority 2014, dated 2015)
